The record followed here is the NIST ThermoML archive (doi:10.1016/j.jct.2017.04.017).

± gives the expanded uncertainty stated by the source.

The conditions of data set [1]: Crystal; DTA.
Data set [2] in a line: Molar enthalpy of transition or fusion. Conditions: Crystal; DSC.

Take `O=C(Nc1ccccc1-c1ccc(Cl)cc1)c1cccnc1Cl` [Boscalid]: the Normal melting temperature in data set [1] was 146.73 ± 0.61 °C. Moreover, the “Molar enthalpy of transition or fusion” value in data set [2] was 8.9 ± 0.335 kcal/mol.
